According to ChEMBL document CHEMBL4385656, “Ciprofloxacin-1,2,3-triazole-isatin hybrids tethered via amide: Design, synthesis, and in vitro anti-mycobacterial activity evaluation” (Bioorg Med Chem Lett, 2019):
In brackets after ≈: the same amount, converted by molar mass.

Legend:
[1] = Selectivity index, ratio of CC50 for cytotoxicity in African green monkey Vero cells to MIC for anti-mycobacterial activity against Mycobacterium tuberculosis H37Rv; assay type: toxicity, cell-based; conditions: read-out: Selectivity Index
[2] = Cytotoxicity in African green monkey Vero cells; assay type: cell-based; conditions: chlorocebus sabaeus
[3] = test system: Mycobacterium tuberculosis; assay: Anti-mycobacterial activity against Mycobacterium tuberculosis H37Rv; assay type: functional
[4] = test system: Mycobacterium tuberculosis; assay: Potency index, ratio of MIC for ciprofloxacin to MIC for test compound for anti-mycobacterial activity against Mycobacterium tuberculosis H37Rv; assay type: functional

SMILES	selectivity ratio [1]	CC50 [2]	MIC [3]	Ratio [4]
CO/N=C1/C(=O)N(Cc2cn(CC(=O)N3CCN(c4cc5c(cc4F)c(=O)c(C(=O)O)cn5C4CC4)CC3)nn2)c2ccc(C)cc21	0.25	8 µg/mL (≈ 12.4 µM)	32 µg/mL (≈ 49.8 µM)	–
CO[C@H]1/C=C/O[C@@]2(C)Oc3c(C)c(O)c4c(O)c(c(/C=N/N5CCN(C)CC5)c(O)c4c3C2=O)NC(=O)/C(C)=C\C=C\[C@H](C)[C@H](O)[C@@H](C)[C@@H](O)[C@@H](C)[C@H](OC(C)=O)[C@@H]1C [RIFAMPIN]	512	128 µg/mL (≈ 156 µM)	0.25 µg/mL (≈ 0.304 µM)	–
Cc1ccc2c(c1)C(=O)C(=O)N2Cc1cn(CC(=O)N2CCN(c3cc4c(cc3F)c(=O)c(C(=O)O)cn4C3CC3)CC2)nn1	16	16 µg/mL (≈ 26.1 µM)	1 µg/mL (≈ 1.63 µM)	–
CCO/N=C1/C(=O)N(Cc2cn(CC(=O)N3CCN(c4cc5c(cc4F)c(=O)c(C(=O)O)cn5C4CC4)CC3)nn2)c2c(F)cccc21	0.5	16 µg/mL (≈ 24.2 µM)	32 µg/mL (≈ 48.4 µM)	–
O=C1C(=O)N(Cc2cn(CC(=O)N3CCN(c4cc5c(cc4F)c(=O)c(C(=O)O)cn5C4CC4)CC3)nn2)c2c(F)cccc21	2	8 µg/mL (≈ 13 µM)	4 µg/mL (≈ 6.48 µM)	–
O=C(O)c1cn(C2CC2)c2cc(N3CCNCC3)c(F)cc2c1=O [CIPROFLOXACIN]	128	–	1 µg/mL (≈ 3.02 µM)	–
CCO/N=C1/C(=O)N(Cc2cn(CC(=O)N3CCN(c4cc5c(cc4F)c(=O)c(C(=O)O)cn5C4CC4)CC3)nn2)c2ccccc21	2	64 µg/mL (≈ 99.6 µM)	32 µg/mL (≈ 49.8 µM)	–
O=C1C(=O)N(Cc2cn(CC(=O)N3CCN(c4cc5c(cc4F)c(=O)c(C(=O)O)cn5C4CC4)CC3)nn2)c2ccc(F)cc21	32	32 µg/mL (≈ 51.8 µM)	1 µg/mL (≈ 1.62 µM)	–
CCO/N=C1/C(=O)N(Cc2cn(CC(=O)N3CCN(c4cc5c(cc4F)c(=O)c(C(=O)O)cn5C4CC4)CC3)nn2)c2ccc(C)cc21	1	32 µg/mL (≈ 48.7 µM)	32 µg/mL (≈ 48.7 µM)	–
CO/N=C1/C(=O)N(Cc2cn(CC(=O)N3CCN(c4cc5c(cc4F)c(=O)c(C(=O)O)cn5C4CC4)CC3)nn2)c2ccc(F)cc21	8	64 µg/mL (≈ 99 µM)	8 µg/mL (≈ 12.4 µM)	–
CO/N=C1/C(=O)N(Cc2cn(CC(=O)N3CCN(c4cc5c(cc4F)c(=O)c(C(=O)O)cn5C4CC4)CC3)nn2)c2c(F)cccc21	1	32 µg/mL (≈ 49.5 µM)	32 µg/mL (≈ 49.5 µM)	–
O=C1C(=O)N(Cc2cn(CC(=O)N3CCN(c4cc5c(cc4F)c(=O)c(C(=O)O)cn5C4CC4)CC3)nn2)c2ccccc21	32	16 µg/mL (≈ 26.7 µM)	0.5 µg/mL (≈ 0.834 µM)	2
CO/N=C1/C(=O)N(Cc2cn(CC(=O)N3CCN(c4cc5c(cc4F)c(=O)c(C(=O)O)cn5C4CC4)CC3)nn2)c2ccccc21	16	128 µg/mL (≈ 204 µM)	8 µg/mL (≈ 12.7 µM)	–
CCO/N=C1/C(=O)N(Cc2cn(CC(=O)N3CCN(c4cc5c(cc4F)c(=O)c(C(=O)O)cn5C4CC4)CC3)nn2)c2ccc(F)cc21	0.5	8 µg/mL (≈ 12.1 µM)	16 µg/mL (≈ 24.2 µM)	–
NNC(=O)c1ccncc1 [ISONIAZID]	512	64 µg/mL (≈ 467 µM)	0.12 µg/mL (≈ 0.875 µM)	–
